Test results: the NIST ThermoML archive (doi:10.1016/j.jct.2005.08.013)
Several values for one entry are separate records, joined by “and”; a condition that tells them apart may be missing. Equal values may be shown once.

Conditions: Calculated from knudsen effusion weight loss

O=C(O)c1ccccc1 [benzoic acid]
Crystal
Conditions	vapor or sublimation pressure
299.33 K	0.000134 kPa and 0.000131 kPa
301.04 K	0.000162 kPa and 0.00016 kPa and 0.000155 kPa
303.16 K	0.000203 kPa and 0.000201 kPa and 0.00021 kPa
305.24 K	0.000271 kPa and 0.000265 kPa and 0.000261 kPa
307.13 K	0.000332 kPa and 0.000326 kPa and 0.000323 kPa
309.25 K	0.000414 kPa and 0.000408 kPa and 0.00042 kPa
311.3 K	0.000525 kPa and 0.000512 kPa and 0.000524 kPa
313.2 K	0.000643 kPa and 0.000622 kPa and 0.000647 kPa
315.27 K	0.000815 kPa and 0.000799 kPa and 0.00083 kPa
317.32 K	0.00105 kPa and 0.00102 kPa and 0.00101 kPa

c1ccc2c(c1)ccc1ccccc12 [phenanthrene]
Crystal 2
Conditions	vapor or sublimation pressure
313.46 K	0.000123 kPa and 0.000124 kPa
315.48 K	0.000151 kPa and 0.000155 kPa and 0.000156 kPa
317.41 K	0.000185 kPa and 0.000191 kPa and 0.000193 kPa
319.47 K	0.000238 kPa and 0.000239 kPa and 0.000235 kPa
321.48 K	0.000292 kPa and 0.000293 kPa and 0.000296 kPa
323.16 K	0.000343 kPa and 0.000352 kPa
325.46 K	0.000436 kPa and 0.000446 kPa and 0.000453 kPa
327.47 K	0.000543 kPa and 0.000544 kPa and 0.00055 kPa
329.47 K	0.00067 kPa and 0.000675 kPa and 0.000678 kPa
331.42 K	0.000814 kPa and 0.000825 kPa and 0.000834 kPa
333.16 K	0.001 kPa and 0.00101 kPa

c1ccc(-c2cc(-c3ccccc3)cc(-c3ccccc3)c2)cc1 [1,3,5-triphenylbenzene]
Crystal
Conditions	vapor or sublimation pressure
407.36 K	0.00014 kPa and 0.000141 kPa and 0.000139 kPa
409.3 K	0.000173 kPa and 0.000166 kPa and 0.000164 kPa
411.3 K	0.000215 kPa and 0.00021 kPa and 0.000206 kPa
413.23 K	0.000251 kPa and 0.000256 kPa
415.35 K	0.000317 kPa and 0.000316 kPa
416.86 K	0.000361 kPa and 0.000348 kPa
417.22 K	0.00037 kPa and 0.000371 kPa
419.24 K	0.000454 kPa and 0.00047 kPa
421.36 K	0.000542 kPa and 0.000563 kPa and 0.000568 kPa
423.29 K	0.000672 kPa and 0.000668 kPa and 0.000649 kPa
425.26 K	0.000796 kPa and 0.000784 kPa
427.36 K	0.000966 kPa and 0.000984 kPa and 0.001 kPa
429.29 K	0.00117 kPa and 0.0012 kPa

O=C1c2ccccc2-c2cccc3cccc1c23 [7H-benz[de]anthracen-7-one]
Crystal
Conditions	vapor or sublimation pressure
390.31 K	0.000152 kPa and 0.000149 kPa
392.23 K	0.000179 kPa and 0.000177 kPa
394.57 K	0.000234 kPa and 0.000221 kPa
396.35 K	0.000263 kPa and 0.000262 kPa and 0.00026 kPa
398.22 K	0.000323 kPa and 0.000325 kPa
400.41 K	0.000394 kPa and 0.000381 kPa
402.19 K	0.000471 kPa and 0.000453 kPa
404.34 K	0.00057 kPa and 0.000564 kPa and 0.000565 kPa
406.35 K	0.000686 kPa and 0.000679 kPa and 0.00068 kPa
408.35 K	0.00081 kPa and 0.000796 kPa and 0.0008 kPa
410.23 K	0.000962 kPa and 0.000954 kPa and 0.000926 kPa

c1ccc2cc3ccccc3cc2c1 [anthracene]
Crystal
Conditions	vapor or sublimation pressure
340.41 K	0.000143 kPa and 0.000144 kPa and 0.000141 kPa
342.25 K	0.000172 kPa and 0.000173 kPa and 0.000167 kPa
344.06 K	0.000211 kPa and 0.000206 kPa
346.4 K	0.000258 kPa and 0.000262 kPa and 0.000263 kPa
348.15 K	0.000306 kPa and 0.000304 kPa and 0.000308 kPa
350.15 K	0.000375 kPa and 0.000371 kPa and 0.000376 kPa
352.39 K	0.000464 kPa and 0.000459 kPa and 0.000458 kPa
354.06 K	0.00055 kPa and 0.000548 kPa and 0.000554 kPa
356.2 K	0.000673 kPa and 0.000679 kPa and 0.000658 kPa
358.22 K	0.000815 kPa and 0.000821 kPa and 0.00081 kPa
360.38 K	0.00101 kPa and 0.00098 kPa
